Data published in patent US20240368163A1, “COMPOUNDS AND METHODS FOR MODULATING SPLICING” (REMIX THERAPEUTICS INC., priority 2021, published 2024).
Read-outs that look alike come from different tables or passages of the source.

Tests used:
Type in all cases: cell-based, human
HTT [1] = test: Splicing RT-qPCR assay, HTT mRNA canonical junction (CJ) and alternative junction (AJ); conditions: Homo sapiens; for AC50: increase in AJ mRNA
Outline: (§1)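 First, A673 cells adhered 24 h, while K562 cells were plated directly. Next, compounds were added as an 11-point 3-fold series from 10 uM for 24 h. Finally, lysates went to RT-qPCR, with 2^(−ΔΔCt) values converted to percentage response.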

MYB [2] = test: Splicing RT-qPCR assay, MYB mRNA canonical junction (CJ) and alternative junction (AJ); conditions: Homo sapiens; for AC50: increase in AJ mRNA
Outline: as §1

SMN2 = test: Splicing RT-qPCR panel, SMN2 canonical junction (CJ) mRNA; conditions: Homo sapiens, read-out: SMN2 IC50 (decrease in CJ mRNA levels)
Outline: as §1

Target C [3] = test: Splicing RT-qPCR panel, Target C canonical junction (CJ) mRNA; conditions: Homo sapiens, read-out: Target C IC50 (decrease in CJ mRNA levels)
Outline: as §1

MYB [4] = test: HiBiT protein abundance assay, MYB; conditions: Homo sapiens, K562, 24 h, modified K562 cells
Outline: (§2)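 Protein abundance measured by Nano-Glo HiBiT lytic luminescence after 24 h compound exposure of modified K562 lines, 10000 cells/well, top final dose 10 μM in 3-fold steps. Four-parameter fit of control-normalised response gives concentration reducing abundance to 50% of untreated.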

HTT [5] = test: HiBiT protein abundance assay, HTT; conditions: Homo sapiens, K562, 24 h, modified K562 cells
Outline: as §2

Target C [6] = test: HiBiT protein abundance assay, Target C; conditions: Homo sapiens, K562, 24 h, modified K562 cells
Outline: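 Target protein levels in engineered HiBiT-tagged cells were read by lytic luminescence after 24 h compound exposure (10000 cells/well, 10 μM top final, 3-fold steps, ≤0.25% DMSO). Unmodified K562 served as baseline; four-parameter regression gave concentration reducing abundance to 50%.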

[7] = gene panel, CJ qPCR, protocol of Example 142, read-out: HTT IC50 (decrease in CJ mRNA levels)
[8] = gene panel, CJ qPCR, protocol of Example 142, read-out: MYB IC50 (decrease in CJ mRNA levels)
[9] = gene panel, CJ qPCR, protocol of Example 142
[10] = 24 h, decrease in CJ mRNA, A673 or K562 cells, 24 hours treatment, RT-qPCR, read-out: HTT CJ IC50
[11] = 24 h, A673 or K562 cells, 24 hours treatment, RT-qPCR
[12] = RT-qPCR panel, canonical junction mRNA, compound concentration having 50% response in CJ decrease, read-out: HTT IC50 (decrease in CJ mRNA levels)
[13] = 24 h, decrease in CJ mRNA, A673 or K562 cells, 24 hours treatment, RT-qPCR, read-out: MYB CJ IC50
[14] = RT-qPCR panel, canonical junction mRNA, compound concentration having 50% response in CJ decrease, read-out: MYB IC50 (decrease in CJ mRNA levels)
[15] = RT-qPCR panel, canonical junction mRNA, compound concentration having 50% response in CJ decrease

IC50 (HTT [1]; [10]) [nM]	IC50 (HTT [1]; [12]) [nM]	IC50 (MYB [2]; [13]) [nM]	IC50 (MYB [2]; [14]) [nM]	IC50 (SMN2; [15]) [nM]	IC50 (Target C [3]; [15]) [µM]	IC50 (MYB [4]; Table 13A) [nM]	IC50 (HTT [5]; Table 13A) [nM]	IC50 (Target C [6]; Table 13A) [nM]	Compound	IC50 (HTT [1]; [7]) [nM]	IC50 (MYB [2]; [8]) [nM]	IC50 (SMN2; [9]) [nM]	IC50 (Target C [3]; [9]) [µM]	IC50 (MYB [4]; Table 13B) [nM]	IC50 (HTT [5]; Table 13B) [nM]	IC50 (Target C [6]; Table 13B) [nM]	AC50 (HTT [1]; [11]) [nM]	AC50 (MYB [2]; [11]) [µM]
–	–	–	–	–	–	–	–	–	COc1nc(-c2cnc(N(C)[C@@H]3C[C@H]4CC[C@@H](C3)N4)nc2)ccc1-c1cn[nH]c1 [Compound 981]	100 to 1000	1000 to 10000	100 to 1000	1 to 10	100 to 1000	< 100	100 to 1000	–	–
–	–	–	–	–	–	–	–	–	COc1nc(-c2ccc(O[C@@H]3C[C@H]4CC[C@@H](C3)N4)nn2)ccc1-c1ccnc(C)c1 [Compound 963]	1000 to 10000	1000 to 10000	1000 to 10000	> 10	1000 to 10000	1000 to 10000	> 10000	–	–
> 10000	> 10000	1000 to 10000	1000 to 10000	100 to 1000	> 10	1000 to 10000	1000 to 10000	> 10000	c1nc2c(-c3cn[nH]c3)ccc(-c3ccc(NC4CCNCC4)nn3)c2s1 [Compound 214]	–	–	–	–	–	–	–	1000 to 10000	> 10
1000 to 10000	1000 to 10000	1000 to 10000	1000 to 10000	> 10000	> 10	1000 to 10000	1000 to 10000	> 10000	c1nc2c(-c3cn[nH]c3)ccc(-c3ccc(N4CCC45CCNCC5)nn3)c2s1 [Compound 266]	–	–	–	–	–	–	–	> 10000	> 10
–	–	–	–	–	–	–	–	–	COc1nc(-c2ccc(N(C)[C@@H]3C[C@H]4CC[C@@H](C3)N4)nc2)ccc1-c1cn[nH]c1 [Compound 979]	< 100	100 to 1000	< 100	0.1 to 1	100 to 1000	< 100	< 100	–	–
> 10000	> 10000	> 10000	> 10000	> 10000	> 10	> 10000	> 10000	> 10000	c1n[nH]cc1-c1ccc(-c2ccc(NC3CNC3)nn2)c2[nH]ncc12 [Compound 237]	–	–	–	–	–	–	–	> 10000	> 10
> 10000	> 10000	> 10000	> 10000	> 10000	> 10	> 10000	> 10000	> 10000	c1n[nH]cc1-c1ccc(-c2ccc(N3CCC4(CCNC4)CC3)nn2)c2[nH]ncc12 [Compound 240]	–	–	–	–	–	–	–	> 10000	> 10
> 10000	> 10000	> 10000	> 10000	> 10000	> 10	> 10000	> 10000	> 10000	c1n[nH]cc1-c1ccc(-c2ccc(NC3CCNCC3)nn2)c2[nH]ncc12 [Compound 263]	–	–	–	–	–	–	–	> 10000	> 10
–	100 to 1000	–	1000 to 10000	1000 to 10000	1 to 10	1000 to 10000	100 to 1000	1000 to 10000	c1nc2c(-c3cn[nH]c3)ccc(-c3cnc(N4CCN5CCCCC5C4)nn3)c2s1 (stereo not drawn) [Compound 566]	–	–	–	–	–	–	–	–	–
–	100 to 1000	–	100 to 1000	100 to 1000	0.1 to 1	1000 to 10000	100 to 1000	100 to 1000	CC(C)(C)C1CN(c2ncc(-c3ccc(-c4cn[nH]c4)c4ncsc34)nn2)CCN1 (stereo not drawn) [Compound 570]	–	–	–	–	–	–	–	–	–
–	–	–	–	–	–	–	–	–	COc1nc(-c2ccc(N3CCC(NC4CC4)C3)nn2)ccc1-n1cccn1 (stereo not drawn) [Compound 958]	> 10000	> 10000	1000 to 10000	> 10	> 10000	> 10000	> 10000	–	–
–	–	–	–	–	–	–	–	–	COc1nc(-c2ccc(NC3CCNCC3)nn2)ccc1-c1cnn(C)c1 [Compound 925]	1000 to 10000	1000 to 10000	100 to 1000	> 10	1000 to 10000	1000 to 10000	1000 to 10000	–	–
1000 to 10000	1000 to 10000	1000 to 10000	1000 to 10000	100 to 1000	> 10	1000 to 10000	1000 to 10000	> 10000	Cn1cc(-c2ccc(-c3ccc(OC4CC(C)(C)NC(C)(C)C4)nn3)c3[nH]ncc23)nn1 [Compound 325, 4-(1-methyl-1H-1,2,3-triazol-4-yl)-7-(6-((2,2,6,6-tetramethylpiperidin-4-yl)oxy)pyridazin-3-yl)-1H-indazole]	–	–	–	–	–	–	–	1000 to 10000	1 to 10
–	–	–	–	–	–	–	–	–	COc1cc(-c2ccc(N(C)[C@@H]3C[C@H]4CC[C@@H](C3)N4)nn2)ncc1-c1cn[nH]c1 [Compound 921]	> 10000	> 10000	1000 to 10000	> 10	1000 to 10000	> 10000	> 10000	–	–
–	–	–	–	–	–	–	–	–	CCOc1nc(-c2ccc(N(C)[C@@H]3C[C@H]4CC[C@@H](C3)N4)nn2)ccc1-c1cn[nH]c1 [Compound 929]	< 100	< 100	< 100	< 0.1	< 100	< 100	< 100	–	–
–	100 to 1000	–	1000 to 10000	100 to 1000	1 to 10	1000 to 10000	100 to 1000	100 to 1000	c1cnn(-c2ccc(-c3ccc(N4CCNC(C5CC5)C4)nn3)c3cn[nH]c23)c1 (stereo not drawn) [Compound 560]	–	–	–	–	–	–	–	–	–
–	–	–	–	–	–	–	–	–	COc1nc(-c2ccc(OC3CC(C)(C)NC(C)(C)C3)nn2)ccc1-n1cccn1 [Compound 934]	1000 to 10000	> 10000	1000 to 10000	> 10	1000 to 10000	1000 to 10000	1000 to 10000	–	–

Compound	IC50 (HTT [1]; [10]) [nM]	IC50 (HTT [1]; [12]) [nM]	IC50 (MYB [2]; [13]) [nM]	IC50 (MYB [2]; [14]) [nM]	IC50 (SMN2; [15]) [nM]	IC50 (Target C [3]; [15]) [µM]	IC50 (MYB [4]; Table 13A) [nM]	IC50 (HTT [5]; Table 13A) [nM]	IC50 (Target C [6]; Table 13A) [nM]	IC50 (HTT [1]; [7]) [nM]	IC50 (MYB [2]; [8]) [nM]	IC50 (SMN2; [9]) [nM]	IC50 (Target C [3]; [9]) [µM]	IC50 (MYB [4]; Table 13B) [nM]	IC50 (HTT [5]; Table 13B) [nM]	IC50 (Target C [6]; Table 13B) [nM]	AC50 (HTT [1]; [11]) [nM]	AC50 (MYB [2]; [11]) [µM]
CN(c1ccc(-c2ccc(-c3cnnc(O)c3)c3scnc23)nn1)C1CC(C)(C)NC(C)(C)C1 [Compound 234]	> 10000	> 10000	> 10000	> 10000	100 to 1000	> 10	1000 to 10000	1000 to 10000	> 10000	–	–	–	–	–	–	–	> 10000	> 10
c1n[nH]cc1-c1ccc(-c2ccc(O[C@@H]3C[C@H]4CC[C@@H](C3)N4)nn2)c2[nH]ncc12 [Compound 142]	100 to 1000	100 to 1000	100 to 1000	100 to 1000	< 100	0.1 to 1	< 100	< 100	< 100	–	–	–	–	–	–	–	100 to 1000	0.1 to 1
CN(c1ccc(-c2ccc(-c3ccc(=O)[nH]c3)c3scnc23)nn1)C1CC(C)(C)NC(C)(C)C1 [Compound 180]	100 to 1000	100 to 1000	100 to 1000	100 to 1000	100 to 1000	0.1 to 1	100 to 1000	100 to 1000	100 to 1000	–	–	–	–	–	–	–	100 to 1000	0.1 to 1
CN(c1ccc(-c2ccc(-n3cccn3)c3ncsc23)nn1)[C@@H]1C[C@H]2CC[C@@H](C1)N2 [Compound 344]	–	< 100	100 to 1000	100 to 1000	< 100	0.1 to 1	100 to 1000	< 100	100 to 1000	–	–	–	–	–	–	–	100 to 1000	0.1 to 1
